From a melting point compilation (Tetko et al.; mined from patent text by program, amines drawn as free bases though some values may be those of a salt)

Compound | melting point [°C]
COc1ccc(-c2cnc(N)c(Sc3ccc(C)cc3)n2)cc1 | 107 to 110
CCOC(=O)C(Cl)(Cl)CCCCCCCCCCCCSc1ccc(NC(=O)c2ccc(Cl)cc2)cc1 | 130 to 131
CC(=O)c1cnc(Br)c(C)c1 | 114 to 115
COc1ccc(C(=O)CC2CCCN(C)C2)cc1 (stereo not drawn) | 89 to 92
Cc1nc2c3c(ccc2n1C)C(=O)C(OC(=O)C(C)(C)C)C(c1ccccc1)O3 (stereo not drawn) | 255
O=c1[nH]c(C2CCNCC2)nc2ccccc12 | 244 to 245
CCc1cc2c(=O)c(C(=O)O)cn(Cc3ccc(-c4ccccc4-c4nnn[nH]4)cc3)c2s1 | 153 to 157
CCCn1nc(-c2cnc3[nH]cc(C(=O)N[C@H](C)C(=O)N4CC(C#N)C4)c3n2)c2ccc(Cl)cc21 | 219 to 221
Cn1nnnc1SCC1c2cc(OC(=O)c3cccs3)c(OC(=O)c3cccs3)cc2CCN1C(=O)OCC(Cl)(Cl)Cl (stereo not drawn) | 139 to 146
Cc1nc(-c2ccc(OCCCCCOc3ccc(C(=N)NO)cc3)cc2)c(C(C)C)s1 | 97
CC(=O)SCC(Cc1ccccc1)C(=O)Nc1ccc(C)c(C(=O)O)c1C (stereo not drawn) | 187 to 189
O=C(CCc1ccccc1)NC1CCC(=O)N2CCCC(C(=O)NC3CC(=O)OC3OCc3ccccc3)N2C1=O (stereo not drawn) | 92 to 94
Cn1c(C(F)(F)F)cc(=O)n(-c2cc(Oc3ccccc3O)c(Cl)cc2F)c1=O | 55.4
CON(C)C(=O)Nc1c(C(=O)c2cccc(Cl)c2)[nH]c2cc(Cl)ccc12 | 167 to 169
CC(CCO)NC1=NS(=O)(=O)c2sc(Cl)cc2N1 (stereo not drawn) | 199 to 203
CSC(=O)C(=O)c1ccc(NC=O)nc1 | 152 to 154
Cc1cc(C#N)cnc1Oc1c(Cl)cc(N)cc1Cl | 212
Oc1ccc(Nc2cc(Cl)ncn2)cc1 | 241 to 244
OC(CCCN1CCN(c2ncc(F)cn2)CC1)(c1ccc(F)cc1)C1CCCCC1 (stereo not drawn) | 53 to 59
CC(C)c1nc(C(O)(C(F)(F)F)C(F)(F)F)[nH]c1-c1ccc(S(C)(=O)=O)cc1 | 182 to 184
CN(C)Cc1ccc(Cc2cnc(N[N+](=O)[O-])[nH]c2=O)cc1 | 214 to 217
Clc1cc(CBr)c(CBr)cc1Cl | 55 to 56
CCCCc1nc2ccccn2c(=O)c1-c1ccc(Cl)c(OC)c1 | 113 to 115
CC(=O)C(C#N)c1cccc(Br)c1 (stereo not drawn) | 96 to 100
Cn1nc(-c2ccccc2Cl)nc1-c1cccc([N+](=O)[O-])c1Cl | 124 to 125

Compound | melting point [°C]
Cc1ccc2c(c1)C(=O)N1CCN=C1N2N1CCOCC1 | 227 to 228
CCOC(=O)c1cn(C2CC2)c2c(C)c(F)c(F)c(N)c2c1=O | 182 to 186
CC(C)c1cc(Oc2ccc(Cl)cc2)nc(C(C)C)c1N | 86 to 88
CS(=O)(=O)O[C@@H]([C@H](OS(C)(=O)=O)[C@H](Cc1ccccc1)NC(=O)OCc1ccccc1)[C@H](Cc1ccccc1)NC(=O)OCc1ccccc1 | 153 to 155
CC1CCN(CC(=O)N2c3ccccc3N(C)S(=O)(=O)c3ccccc32)CC1 | 159 to 160
COc1ccc(CN2CCN(CCC(c3ccccc3)c3ccccc3)CC2)cc1OC | 98 to 104
O=C(NCCSCc1cccc(Cl)c1)c1c(C(F)(F)F)cccc1C(F)(F)F | 93 to 94
O=c1[nH]c2cc(C(F)(F)F)ccc2n1-c1cc(Cl)cc(Br)c1O | 254 to 255
CS(=O)(=O)c1ccc(-c2cc(C(F)(F)F)nn2C2CCCCC2)cc1F | 228 to 229
Nc1cc2c(cc1Br)-c1cc(Br)c(N)cc1S2(=O)=O | > 355
CC1SC(c2cccnc2)N(CC(=O)OC(C)(C)C)C1=O (stereo not drawn) | 108
Cc1nc2cc(C34CC5CC(CC(C5)C3)C4)cc(-c3cccc(C=C4SC(=S)NC4=O)c3)c2o1 | 310
O=C1CCC(=O)C1C(=O)c1ccc(Cl)cc1Cl | 109 to 113
C=CC1=C(C(=O)OCC)C(C(F)(F)F)Oc2ccc(Cl)cc21 (stereo not drawn) | 51.9 to 53.2
O=C(O)Cc1ccc(-c2ccc(F)cc2F)cc1 | 143 to 145
Cc1ccccc1-c1nc2c3ccccc3ccn2c1N | 151 to 153
O=C(Nc1ccc(-n2nc(C(F)(F)F)cc2C(F)(F)F)cc1)c1cccnc1F | 110 to 112
CC1(C(=O)O)COC2(CC3CCC2(C)C3(C)C)OC1 (stereo not drawn) | 172 to 175
COCCOc1ccnc(NCc2ccccc2)c1[N+](=O)[O-] | 81 to 83
Nc1ccc2c3c(cccc13)CC2 | 178 to 179
O=C(O)c1cnc(-c2ccc(OCc3ccccc3)cc2)nc1 | 299
O=C(Nc1cccc2c1ncc1c(=O)n3ccnc3sc12)c1c(Cl)cccc1Cl | > 250
COc1cc2ncc(C#N)c(Nc3cccc(Br)c3)c2cc1OC | 224 to 228
CC(=O)OC(COc1ccc(/C=C/C(=O)O)c(Oc2ncc(C(F)(F)F)cc2Cl)c1)COC(C)C (stereo not drawn) | 134 to 135
COC(=O)C1=C(C)NC(C)=C(C(=O)OC)C1c1ccccc1-c1cccs1 | 173 to 175

Compound | melting point [°C]
O=C(CC(c1ccccc1)c1ccccc1)N1CCN(CCc2cc3ccccc3o2)CC1 | 123 to 124
Cc1cc(=O)c(-c2ccc(Oc3ccc(C(F)(F)F)cc3)cc2)c(C)[nH]1 | 258 to 260
C/C(=C\CCl)n1ncc(-c2ccc(S(N)(=O)=O)cc2)c(-c2ccc(F)cc2)c1=O | 152 to 154
Cc1cc(=O)c2ccc(OCCCN3CCC(NC(=O)c4ccccc4)CC3)cc2o1 | 173 to 175
CS(=O)(=O)N1CCC(C2=C(C#N)C(c3cccc(C#N)c3Br)c3c[nH]nc3N2)CC1 (stereo not drawn) | > 280
CC(C)(C)Nc1cc(Cl)nc(Cl)n1 | 192 to 193
CCC1(C)CC(N(CCN(C(C)=O)C2CC(C)(CC)NC(C)(CC)C2C)C(C)=O)C(C)C(C)(CC)N1 (stereo not drawn) | 173 to 175
CC(C)[C@@H](C(=O)N1C(=O)O[C@@H](c2ccccc2)[C@H]1C)[C@@H](O)[C@@H]1OC(C)(C)N(C(=O)OC(C)(C)C)[C@H]1CC1CCCCC1 | 97
CC(C)c1nc(C(C)C)c(CO)c(-c2ccc(F)cc2)c1/C=C/c1ccccc1 | 107 to 110
CCCc1ccc2c(c1CCC(=O)O)CCC(NS(=O)(=O)c1ccc(Cl)cc1)C2 (stereo not drawn) | 165 to 167
O=C1CCc2cc(NCC(=O)N3CCC(Cc4ccccc4)CC3)ccc2N1 | 184 to 187
CC(=O)Nc1cc([N+](=O)[O-])ccc1O | 283 to 284
Cc1ccc(Oc2ccc([N+](=O)[O-])cn2)cc1 | 80 to 82
O=C1N(C(c2ccccc2)c2ccccc2)c2c(F)cccc2C1(O)c1cc2c(cc1O)OCC2 (stereo not drawn) | 121 to 122
COc1ccc(C2=NN(C3CCN(C(=O)[C@H](C)NC(=O)NC(C)(C)C)CC3)C(=O)[C@@H]3CC=CC[C@H]23)cc1OC | 153 to 154
CC(=O)OCCc1ccc(-c2csc(=O)s2)cc1 | 55 to 56
N#Cc1ncn(Cc2ccccc2)c1C#N | 123 to 125
CCC(=O)c1cc(C2(c3cccc(O)c3)N=C(N)N(C)C2=O)cn1CC (stereo not drawn) | 101
COc1cc(N2CCCCC2)c(Cl)cc1CC(=O)O | 120 to 122
CNC(=S)Nc1cc(Cl)ccc1C | 139 to 140
NC(=O)c1ccc(C(c2ccccc2[N+](=O)[O-])(C(F)(F)F)C(F)(F)F)cc1 | 147 to 148
O=[N+]([O-])c1ccc(C2=NNC(=S)Cc3cc4c(cc32)OCO4)cc1 | 257 to 258
CCC(=CC(CNC(=O)c1cnc2ccccc2c1)=NO)C(C)[N+](=O)[O-] (stereo not drawn) | 168 to 170
N#CC(N)=C(C#N)N=Cc1cnn(-c2c(Cl)cc(OC(F)(F)F)cc2Cl)n1 | 199 to 201
CON1CCC2(CC1)C(O)=C(c1c(C)cc(C)cc1C)C(=O)N2CC1CC1 | 223 to 225

Compound | melting point [°C]
O=C1c2ccccc2S(=O)(=O)N1CF | 96 to 98
COc1ccc2c(c1)C(CCNC(C)=O)CC2 (stereo not drawn) | 73 to 74
COc1cccc([C@H]2O[C@H](CC(=O)Nc3cccc(C(=O)O)c3C)C(=O)N(CC(C)(C)COC(C)=O)c3ccc(Cl)cc32)c1OC | 139 to 142
COC(=O)C(=O)c1ccc(OCCOc2ccc(Oc3ccccc3)cc2)cc1 | 97 to 98
COc1cc(OC)cc(N2CCN(C(=O)N(C)c3cc(C)c(C)cc3OC)CC2)c1 | 86 to 88
O=S(=O)(CC(O)(CI)c1ccccc1)c1ccccc1 (stereo not drawn) | 98
Cn1c(-c2ccc(-c3cccnc3)cc2)cnc1[C@H](Cc1ccccn1)N(C=O)c1cc2cc(Br)ccc2o1 | 168 to 171
N#Cc1cc(-c2ccc(Cl)c(Cl)c2)[nH]c1Cl | > 200
Cc1c(CC(C)C(=O)c2cn(C)c3ccccc23)ncn1C(c1ccccc1)(c1ccccc1)c1ccccc1 (stereo not drawn) | 209 to 210
OC1=C(c2ccccc2)CC(O)(Cl)C=C1 (stereo not drawn) | 110 to 111
CN(C)Cc1ccc(CSCCNC(=O)NCCCN(C)CCN(Cc2ccc(F)cc2)c2ccccn2)o1 | 102
CC(C)(C)OC(=O)Nc1c(F)ccc2c1OC(C)(C)O2 | 106 to 107
CCCSNc1ccc(N)cc1 | 213 to 225
Cc1cccc(NC(=O)N=C2CCCN2C)c1 | 137 to 142
OCc1nn(-c2ccc(F)cc2)c2c1CCCC2 | 117 to 118
CCn1cc(C(N)=O)c(=O)c2ccc(-c3ccccn3)cc21 | 245 to 246
CN(C)C(=O)CCN1CCC(C(O)(c2ccc(F)cc2)c2ccc(F)cc2)CC1 | 134 to 135
CCCCc1ncc(CC(=O)N[C@@H](Cc2ccccc2)C(=O)O)n1Cc1ccccc1Cl | 168 to 170
CCNc1ccc(SSc2ccc(NCC)cc2C(=O)NC(C(=O)O)C(C)CC)c(C(=O)NC(C(=O)O)C(C)CC)c1 (stereo not drawn) | 97 to 100
ClC(Cl)(Cl)c1nnc(Br)s1 | 39
OC(CCN1CC=C(c2ccc(Cl)cc2)CC1)c1ccc(Cc2ccccn2)cc1 (stereo not drawn) | 129 to 131
O=[N+]([O-])c1c(O)c(O)cc2ccccc12 | 141 to 143
CN(C)c1ccc2sc(C=O)cc2c1 | 105 to 106
